The text below walks through data of US11458077B2, “Two-phase cosmetic composition comprising a 4-(3-alkoxy-4-hydroxyphenyl)alkyl ketone” (L'OREAL, priority 2017, dated 2022).

The nature of the data set: Solubility of the ketone compound. Format: physicochemical.

With `CCOc1cc(CCC(C)=O)ccc1O` [ketone compound, 4-(3-Ethoxy-4-hydroxyphenyl)butan-2-one], under “glycerol”, the solubility in glycerol entry was “very low solubility”. For the same compound, the solubility in water result (water) is recorded as “very low solubility”.
